Measured values from paper PMC6632053, “Incorporation of Putative Helix-Breaking Amino Acids in the Design of Novel Stapled Peptides: Exploring Biophysical and Cellular Permeability Properties” (Molecules, 2019).
Read-outs that look alike come from different tables or passages of the source. Bridge positions count the residues as written; N and C are the ends. Square brackets hold non-standard residues; d marks the D form. Peptide text beside a SMILES is read from it. R8 = C=CCCCCCC[C@@](C)(N)C(=O)O; Cba = N[C@@H](CC1CCC1)C(=O)O; S5 = C=CCCC[C@](C)(N)C(=O)O

Experiments:
[1] = tested on: p53 responsive β-lactamase reporter in HCT116 cells; experiment: p53 beta-lactamase reporter gene cellular functional assay; assay type: cell-based; details: p53 reporter assay, HCT116, read-out: Cellular (µM), cellular activity (EC50)
Method: HCT116 cells were stably transfected with a p53 responsive β-lactamase reporter and were seeded into a 384-well plate at a density of 8000 cells per well. Cells were maintained in McCoy’s 5A Medium with 10% fetal bovine serum (FBS), Blasticidin, and Penicillin/Streptomycin. The cells were incubated overnight, followed by removal of cell growth media and replacement with Opti-MEM either containing 0% FBS or 10% FBS. […] The final working concentration of DMSO was 0.5%. β-lactamase activity was detected using the ToxBLAzer Dual Screen (Invitrogen), as per the manufacturer’s instructions. Measurements were made using the Envision multiplate reader (Perkin–Elmer).

human Mdm2 1–125 = target: T1, human Mdm2 1–125 (Homo sapiens, UniProt Q00987); experiment: Mdm2 binding assay (competitive fluorescence anisotropy/polarization)
T1 construct: GST (N); His6 (internal); TEV cleavage site ENLYFQG (internal); made in house; host or cells: Escherichia coli BL21 (DE3) Rosetta T1R
T1 sequence (Q00987 with tags, fused parts or gaps): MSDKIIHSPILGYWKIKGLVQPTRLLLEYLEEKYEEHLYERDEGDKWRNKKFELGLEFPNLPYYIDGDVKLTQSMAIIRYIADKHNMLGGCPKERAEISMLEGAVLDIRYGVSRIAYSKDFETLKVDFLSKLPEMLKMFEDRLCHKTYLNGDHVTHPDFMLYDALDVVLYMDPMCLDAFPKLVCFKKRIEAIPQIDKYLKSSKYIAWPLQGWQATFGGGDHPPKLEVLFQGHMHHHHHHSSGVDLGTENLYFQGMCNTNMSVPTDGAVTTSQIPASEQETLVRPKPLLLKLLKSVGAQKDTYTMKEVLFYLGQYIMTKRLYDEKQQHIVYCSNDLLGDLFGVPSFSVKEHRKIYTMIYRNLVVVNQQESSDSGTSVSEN
Method: The TEV (tobacco etch virus) cleavage site was changed from ENLYFQS to ENLYFQG to give a fusion protein with the following sequence:
Titrations were carried out with the concentration of Mdm2 held constant at 250 nM and the labeled peptide at 50 nM. The competing molecules were then titrated against the complex of the FAM-labeled peptide and protein. Apparent Kd values were determined by fitting the experimental data to the equations shown below:(2) r=r0+(rb−r0)×2(d^2−3e)cos(θ/3)−9/3Kd1+2(d^2−3e)cos(θ/3)−dd=Kd1+Kd2+[L]st+[L]t−[P]te=([L]t−[P]t)Kd1+([L]st−[P]t)Kd2+Kd1Kd2f=−Kd1Kd2[P]tθ=arcos[−2d^3+9de−27f/2(d^2−3e)^3] where [L]st and [L]t denote labeled ligand and total unlabeled ligand input concentrations, respectively. Kd2 is the dissociation constant of the interaction between the unlabeled ligand and the protein. In all competition experiments, it was assumed that [P]t > [L]st, otherwise considerable amounts of free labeled ligand would always be present and would interfere with measurements. Kd1 is the apparent Kd for the labeled peptide used and was experimentally determined as described in the previous paragraph. The FAM-labeled peptide was dissolved in dimethyl sulfoxide (DMSO) at 1 mM and diluted into the experimental buffer. Readings were carried out with an Envision Multilabel Reader (PerkinElmer). Experiments were carried out in PBS (2.7 mM KCl, 137mM NaCl, 10 mM Na2HPO4, and 2 mM KH2PO4 (pH 7.4)) and 0.1% Tween 20 buffer. All titrations were carried out in triplicate. Curve-fitting was carried out using Prism 4.0 (GraphPad). […] Negative control titrations of the ligands under investigation were also carried out with the fluorescently labeled peptide (in the absence of Mdm2) to ensure no interactions were occurring between the ligands and the FAM-labeled peptide.

[2] = Circular dichroism (CD) α-helicity; assay type: physicochemical; details: CD of free peptide, 25 °C, 1 mM Hepes pH 7.4, 5% methanol
Method: A total of 5 µL of the 10 mM stock peptide was mixed with 45 µL of 100% methanol, and dried for 2 h in the SpeedVac concentrator (Thermo Scientific). The dried peptide was reconstituted in a buffer (1 mM Hepes pH 7.4 and 5% methanol) to a concentration of 1 mM. The peptide sample was placed in a quartz cuvette with a path length of 0.2 cm. The peptide concentration was determined by the absorbance of the peptide at […]. The CD spectrum was recorded from 300 to 190 nm using the Chirascan-plus qCD machine (Applied Photophysics, Surrey, UK), at 25 °C. All experiments were done in duplicates. The CD spectrum was converted to mean residue ellipticity, before deconvolution and estimation of the secondary structure components of the peptide using the CDNN software (distributed by Applied Photophysics).

[3] = Table 1, competitive fluorescence polarization, read-out: Mdm2 (nM), Mdm2 binding (Kd)

Row | Compound | EC50 ([1]; Table 1) [µM] | Kd (human Mdm2 1–125; [3]) [nM] | Helicity (%) ([2]; Table 1) | Kd (human Mdm2 1–125; Table 2, competitive fluorescence polarization, read-out: Mdm2 (nM), Mdm2 binding (Kd)) [nM] | EC50 ([1]; Table 2) [µM] | Helicity (%) ([2]; Table 2) | Kd (human Mdm2 1–125) [nM]
1 | CC(=O)N[C@@H](CC(C)C)C(=O)N[C@H](C(=O)N[C@@H](Cc1ccccc1)C(=O)N[C@]1(C)CCCCCCC=CCCC[C@@](C)(C(=O)N[C@@H](CO)C(=O)N[C@@H](C)C(=O)N[C@@H](C)C(N)=O)NC(=O)[C@H](CC2CCC2)NC(=O)[C@H](CC(C)C)NC(=O)[C@H](CCC(N)=O)NC(=O)[C@H](Cc2c[nH]c3ccccc23)NC(=O)[C@H](Cc2ccc(O)cc2)NC(=O)[C@@H](CCC(=O)O)NC1=O)[C@@H](C)O [E5(D-Glu)] | 1 | 32 | 38.2 | – | – | – | –
2 | CC(=O)N[C@@H](CC(C)C)C(=O)N[C@H](C(=O)N[C@@H](Cc1ccccc1)C(=O)N[C@]1(C)CCCCCCC=CCCC[C@@](C)(C(=O)N[C@@H](CO)C(=O)N[C@@H](C)C(=O)N[C@H](C)C(N)=O)NC(=O)[C@H](CC2CCC2)NC(=O)[C@H](CC(C)C)NC(=O)[C@H](CCC(N)=O)NC(=O)[C@H](Cc2c[nH]c3ccccc23)NC(=O)[C@H](Cc2ccc(O)cc2)NC(=O)[C@H](CCC(=O)O)NC1=O)[C@@H](C)O [A14(D-Ala)] | 0.5 | 18 | 34.6 | – | – | – | –
3 | CC(=O)N[C@@H](CCCCN=[N+]=[N-])C(=O)NCCC(=O)N[C@@H](CC(C)C)C(=O)N[C@H](C(=O)N[C@@H](Cc1ccccc1)C(=O)N[C@]1(C)CCCCCCC=CCCC[C@@](C)(C(=O)NCC(=O)N[C@@H](C)C(=O)N[C@@H](C)C(N)=O)NC(=O)[C@H](CC2CCC2)NC(=O)[C@H](CCC(N)=O)NC(=O)[C@H](C)NC(=O)[C@H](Cc2c[nH]c3ccccc23)NC(=O)[C@H](Cc2ccc(O)cc2)NC(=O)[C@H](CCC(=O)O)NC1=O)[C@@H](C)O [Peptide S12G] | – | – | – | – | 0.65 | 46.5 | 18.9
4 | CC(=O)N[C@H](CC(C)C)C(=O)N[C@H](C(=O)N[C@@H](Cc1ccccc1)C(=O)N[C@]1(C)CCCCCCC=CCCC[C@@](C)(C(=O)N[C@@H](CO)C(=O)N[C@@H](C)C(=O)N[C@@H](C)C(N)=O)NC(=O)[C@H](CC2CCC2)NC(=O)[C@H](CC(C)C)NC(=O)[C@H](CCC(N)=O)NC(=O)[C@H](Cc2c[nH]c3ccccc23)NC(=O)[C@H](Cc2ccc(O)cc2)NC(=O)[C@H](CCC(=O)O)NC1=O)[C@@H](C)O [L1(D-Leu)] | 0.6 | 31 | 44.1 | – | – | – | –
5 | CC(=O)N[C@@H](CC(C)C)C(=O)N[C@H](C(=O)N[C@@H](Cc1ccccc1)C(=O)N[C@]1(C)CCCCCCC=CCCC[C@@](C)(C(=O)N[C@@H](CO)C(=O)N[C@@H](C)C(=O)N[C@@H](C)C(N)=O)NC(=O)[C@H](CC2CCC2)NC(=O)[C@H](CC(C)C)NC(=O)[C@H](CCC(N)=O)NC(=O)[C@H](Cc2c[nH]c3ccccc23)NC(=O)[C@H](Cc2ccc(O)cc2)NC(=O)[C@H](C)NC1=O)[C@@H](C)O [Peptide E5A] (Ac-LTF[R8]AYWQL[Cba][S5]SAA-NH2; staple 4-11) | 0.18 | 29.8 | 27.6 | – | – | – | –
6 | CC(=O)N[C@@H](CC(C)C)C(=O)N[C@H](C(=O)N[C@@H](Cc1ccccc1)C(=O)N[C@]1(C)CCCCCCC=CCCC[C@@](C)(C(=O)N[C@@H](CO)C(=O)N[C@H](C)C(=O)N[C@@H](C)C(N)=O)NC(=O)[C@H](CC2CCC2)NC(=O)[C@H](CC(C)C)NC(=O)[C@H](CCC(N)=O)NC(=O)[C@H](Cc2c[nH]c3ccccc23)NC(=O)[C@H](Cc2ccc(O)cc2)NC(=O)[C@H](CCC(=O)O)NC1=O)[C@@H](C)O [A13(D-Ala)] | 0.6 | 17 | 41.8 | – | – | – | –

Now from value to compound, other results behind:

Row | EC50 ([1]; Table 1) [µM] | Kd (human Mdm2 1–125; [3]) [nM] | Helicity (%) ([2]; Table 1) | Kd (human Mdm2 1–125; Table 2, competitive fluorescence polarization, read-out: Mdm2 (nM), Mdm2 binding (Kd)) [nM] | Compound | EC50 ([1]; Table 2) [µM] | Helicity (%) ([2]; Table 2) | Kd (human Mdm2 1–125) [nM]
7 | 3.2 | 286 | 43.2 | – | CC(=O)N[C@@H](CC(C)C)C(=O)N[C@H](C(=O)N[C@@H](Cc1ccccc1)C(=O)N[C@]1(C)CCCCCCC=CCCC[C@@](C)(C(=O)N[C@@H](CO)C(=O)N[C@@H](C)C(=O)N[C@@H](C)C(N)=O)NC(=O)[C@H](CC2CCC2)NC(=O)[C@H](CC(C)C)NC(=O)[C@H](CCC(N)=O)NC(=O)[C@H](Cc2c[nH]c3ccccc23)NC(=O)[C@@H](Cc2ccc(O)cc2)NC(=O)[C@H](CCC(=O)O)NC1=O)[C@@H](C)O [Y6 (D-Tyr)] | – | – | –
8 | 0.55 | 38.9 | 50.3 | – | CC(=O)N[C@@H](CC(C)C)C(=O)N[C@H](C(=O)N[C@@H](Cc1ccccc1)C(=O)N[C@]1(C)CCCCCCC=CCCC[C@@](C)(C(=O)N[C@@H](CO)C(=O)N[C@@H](C)C(=O)N[C@@H](C)C(N)=O)NC(=O)[C@H](CC2CCC2)NC(=O)[C@H](CC(C)C)NC(=O)[C@H](CCC(N)=O)NC(=O)[C@H](Cc2c[nH]c3ccccc23)NC(=O)[C@H](C)NC(=O)[C@H](CCC(=O)O)NC1=O)[C@@H](C)O [Peptide Y6A] (Ac-LTF[R8]EAWQL[Cba][S5]SAA-NH2; staple 4-11) | – | – | –
9 | 1 | 21.3 | 36.2 | – | CC(=O)N[C@@H](CC(C)C)C(=O)N[C@@H](C)C(=O)N[C@@H](Cc1ccccc1)C(=O)N[C@]1(C)CCCCCCC=CCCC[C@@](C)(C(=O)N[C@@H](CO)C(=O)N[C@@H](C)C(=O)N[C@@H](C)C(N)=O)NC(=O)[C@H](CC2CCC2)NC(=O)[C@H](CC(C)C)NC(=O)[C@H](CCC(N)=O)NC(=O)[C@H](Cc2c[nH]c3ccccc23)NC(=O)[C@H](Cc2ccc(O)cc2)NC(=O)[C@H](CCC(=O)O)NC1=O [Peptide T2A] (Ac-LAF[R8]EYWQL[Cba][S5]SAA-NH2; staple 4-11) | – | – | –
10 | – | – | – | 45.7 | CC(=O)N[C@@H](CCCCN=[N+]=[N-])C(=O)NCCC(=O)N[C@@H](CC(C)C)C(=O)N[C@H](C(=O)N[C@@H](Cc1ccccc1)C(=O)N[C@]1(C)CCCCCCC=CCCC[C@@](C)(C(=O)N2CCC[C@H]2C(=O)N[C@@H](C)C(=O)N[C@@H](C)C(N)=O)NC(=O)[C@H](CC2CCC2)NC(=O)[C@H](CCC(N)=O)NC(=O)[C@H](C)NC(=O)[C@H](Cc2c[nH]c3ccccc23)NC(=O)[C@H](Cc2ccc(O)cc2)NC(=O)[C@H](CCC(=O)O)NC1=O)[C@@H](C)O [Peptide S12P] | 3.7 | 30.8 | –
11 | 2.1 | 22 | 27.1 | – | CC(=O)N[C@@H](CC(C)C)C(=O)N[C@H](C(=O)N[C@@H](Cc1ccccc1)C(=O)N[C@]1(C)CCCCCCC=CCCC[C@@](C)(C(=O)N[C@@H](CO)C(=O)N[C@@H](C)C(=O)N[C@@H](C)C(N)=O)NC(=O)[C@H](CC2CCC2)NC(=O)[C@H](CC(C)C)NC(=O)[C@@H](CCC(N)=O)NC(=O)[C@H](Cc2c[nH]c3ccccc23)NC(=O)[C@H](Cc2ccc(O)cc2)NC(=O)[C@H](CCC(=O)O)NC1=O)[C@@H](C)O [Q8(D-Gln)] | – | – | –
12 | 0.35 | 20.4 | 36.5 | – | CC(=O)N[C@@H](CC(C)C)C(=O)N[C@H](C(=O)N[C@@H](Cc1ccccc1)C(=O)N[C@]1(C)CCCCCCC=CCCC[C@@](C)(C(=O)N[C@@H](C)C(=O)N[C@@H](C)C(=O)N[C@@H](C)C(N)=O)NC(=O)[C@H](CC2CCC2)NC(=O)[C@H](CC(C)C)NC(=O)[C@H](CCC(N)=O)NC(=O)[C@H](Cc2c[nH]c3ccccc23)NC(=O)[C@H](Cc2ccc(O)cc2)NC(=O)[C@H](CCC(=O)O)NC1=O)[C@@H](C)O [Peptide S12A] (Ac-LTF[R8]EYWQL[Cba][S5]AAA-NH2; staple 4-11) | – | – | –
13 | 1.2 | 8.6 | 41.2 | – | CC(=O)N[C@@H](CC(C)C)C(=O)N[C@H](C(=O)N[C@@H](Cc1ccccc1)C(=O)N[C@]1(C)CCCCCCC=CCCC[C@@](C)(C(=O)N[C@H](CO)C(=O)N[C@@H](C)C(=O)N[C@@H](C)C(N)=O)NC(=O)[C@H](CC2CCC2)NC(=O)[C@H](CC(C)C)NC(=O)[C@H](CCC(N)=O)NC(=O)[C@H](Cc2c[nH]c3ccccc23)NC(=O)[C@H](Cc2ccc(O)cc2)NC(=O)[C@H](CCC(=O)O)NC1=O)[C@@H](C)O [S12(D-Ser)] | – | – | –
